Measured values reported in article PMC6792352, “Limited Chemical Structural Diversity Found to Modulate Thyroid Hormone Receptor in the Tox21 Chemical Library” (Environmental Health Perspectives, 2019).
Structures can show the parent of a compound that is named as a salt.

Experiment: in vitro
Settings: rat, gh3-tre-luc cells, AC50 (uM) modified / 1000

| SMILES | CC50 at 24 h |
| --- | --- |
| CCCCCCCCCCC[C@@H](C[C@@H]1OC(=O)[C@H]1CCCCCC)OC(=O)[C@H](CC(C)C)NC=O [Orlistat] | > 50 µM |
| CCCCCCCCCCCCCCCCCl [1-Chlorohexadecane] | > 20 µM |
| CC[C@@H](C)[C@H](N)C(=O)O [L-Alloisoleucine] | > 50 µM |
| CC1(C)S[C@@H]2[C@H](NC(=O)[C@H](N)c3ccccc3)C(=O)N2[C@H]1C(=O)OC1OC(=O)c2ccccc21 (stereo partly shown) [Talampicillin hydrochloride] | > 20 µM |
| C=CS(=O)(=O)O [Sodium ethenesulfonate] | > 50 µM |
| C1CCc2nnnn2CC1 [Pentylenetetrazol] | > 50 µM |
| O=C(O)c1ccc2[nH]cc(CCCCN3CC=C(c4ccccc4)CC3)c2c1 [Carmoxirole] | > 50 µM |
| CCN(CCCCOC(=O)c1ccc(OC)c(OC)c1)C(C)Cc1ccc(OC)cc1 (stereo not shown) [Mebeverine hydrochloride] | > 20 µM |
| CC(C)CCCCCOC(=O)CCCOc1ccc(Cl)cc1Cl [2,4-DB-isooctyl ester] | > 90 µM |
| CO[C@@]1(NC(=O)Cc2cccs2)C(=O)N2C(C(=O)O)=C(COC(N)=O)CS[C@@H]21 [Cefoxitin] | > 50 µM |
| COc1ccc(/C=C/S(=O)(=O)NC(=O)c2ccc(C)cc2Cl)cc1 [PharmaGSID_48514] | > 90 µM |
| C[C@@H]1[C@H](O)[C@@H](C)/C=C/C=C/C=C/C=C/C=C/C=C/C=C/[C@H](O[C@@H]2O[C@H](C)[C@@H](O)[C@H](N)[C@@H]2O)C[C@@H]2O[C@](O)(C[C@@H](O)C[C@@H](O)[C@H](O)CC[C@@H](O)C[C@@H](O)CC(=O)O[C@H]1C)C[C@H](O)[C@H]2C(=O)O [Amphotericin B] | 32.9 µM |
| Brc1cc2ccccc2c2ccccc12 [9-Bromophenanthrene] | > 90 µM |
| CC(Oc1ccc(Oc2ncc(C(F)(F)F)cc2Cl)cc1)C(=O)O (stereo not shown) [Haloxyfop] | > 90 µM |
| CC(C)C(C)C [2,3-Dimethylbutane] | > 90 µM |
| CC(C)c1cccc(C(C)C)c1N [2,6-Diisopropylaniline] | > 90 µM |
| CN(C)C(=O)CCSC(SCCC(=O)O)c1cccc(/C=C/c2ccc3ccc(Cl)cc3n2)c1 (stereo not shown) [MK-571 sodium] | 28.9 µM |
| O=C1CCCCO1 [Tetrahydro-2H-pyran-2-one] | > 90 µM |
| CN1CCC(CN2c3ccccc3Sc3ccccc32)C1 (stereo not shown) [Methdilazine hydrochloride] | 8.75 µM |
| COC(=O)C1=C(C#N)NC(C)=C(C(=O)OC(C)C)C1c1cccc([N+](=O)[O-])c1 (stereo not shown) [Nilvadipine] | 27.9 µM |
| Clc1ccc(C(Cn2ccnc2)OCc2c(Cl)cccc2Cl)c(Cl)c1 (stereo not shown) [Isoconazole] | 13.8 µM |
| NC(=O)OCCCc1ccccc1 [Phenprobamate] | > 50 µM |
| C=CC1CC2C=CC1C2 (stereo not shown) [5-Vinyl-2-norbornene] | > 90 µM |
| C[C@@](Cc1ccc(O)c(O)c1)(NN)C(=O)O [Carbidopa] | > 50 µM |
| CC(=O)c1ccccn1 [2-Acetylpyridine] | > 90 µM |
| N=C(N/N=C/c1ccc(Cl)cc1)N/N=C/c1ccc(Cl)cc1 [Robenidine] | 46.1 µM |

| SMILES | CC50 at 24 h |
| --- | --- |
| C[C@]12CC[C@@H]3c4ccc(O)cc4CC[C@H]3[C@@H]1C[C@@H](O)[C@@H]2O [Estriol] | > 90 µM |
| CCCCCCCCCCl [1-Chlorononane] | > 90 µM |
| CC(C)(C)CC(C)(C)c1ccccc1O [(1,1,3,3-Tetramethylbutyl)phenol (all isomers)] | 31.1 µM |
| C=CC(=O)OCC[N+](C)(C)C [2-(Dimethylamino)ethyl acrylate methochloride] | > 90 µM |
| CCCCCC(=O)OCCc1ccccc1 [2-Phenylethyl hexanoate] | > 90 µM |
| CC1=NS(=O)(=O)c2cc(Cl)ccc2N1 [Diazoxide] | > 50 µM |
| O=C(O)/C=C/c1ccccc1 [E-Cinnamic acid] | > 90 µM |
| NC(=O)Cn1c(=O)cc(CCN2CCN(c3nccc4sccc34)CC2)c2ccc(F)cc21 [Trelanserin] | 52.8 µM |
| OCCOc1cccc(OCCO)c1 [2,2'-[Benzene-1,3-diylbis(oxy)]diethanol] | > 90 µM |
| O=C(O)c1ccc2c(c1)C(=O)OC2=O [Trimellitic anhydride] | > 90 µM |
| O=P1(N(CCCl)CCCl)NCCCO1 (stereo not shown) [Cyclophosphamide monohydrate] | > 90 µM |
| C=CCn1c(=O)n(CC=C)c(=O)n(CC=C)c1=O [Triallyl isocyanurate] | > 90 µM |
| CCCCOC(=O)c1ccccc1C(=O)O [Monobutyl phthalate] | > 90 µM |
| Nc1nc(N)c(N)c(N)n1 [2,4,5,6-Pyrimidinetetramine sulfate (1:1)] | > 90 µM |
| CCc1nccnc1C [3-Ethyl-2-methylpyrazine] | > 90 µM |
| CC(O)CN(CCN(CC(C)O)CC(C)O)CC(C)O (stereo not shown) [N,N,N',N'-Tetrakis(2-Hydroxypropyl)ethylenediamine] | > 90 µM |
| O=C1CN=C(c2ccccc2)c2cc([N+](=O)[O-])ccc2N1 [Nitrazepam] | > 50 µM |
| CC(C)CCCCCCCOP(=O)(Oc1ccccc1)Oc1ccccc1 [Isodecyl diphenyl phosphate] | 27.3 µM |
| CC[C@@H](C(=O)[C@@H](C)[C@@H](O)[C@H](C)[C@@H]1O[C@@H]([C@@H](CC)C(=O)O)CC[C@@H]1C)[C@H]1O[C@]2(C=C[C@@H](O)[C@]3(CC[C@@](C)([C@H]4CC[C@](O)(CC)[C@H](C)O4)O3)O2)[C@H](C)C[C@@H]1C [Salinomycin sodium] | 0.823 µM |
| Cc1ccccc1NC(=N)Nc1ccccc1C [1,3-Bis(2-methylphenyl)guanidine] | > 90 µM |
| CCCCCCCCCCCCOS(=O)(=O)O [Sodium dodecyl sulfate] | > 90 µM |
| Nc1ccc(N)c2ccccc12 [1,4-Naphthalenediamine] | > 90 µM |
| CCN1C(=O)NC(c2ccccc2)C1=O (stereo not shown) [Ethotoin] | > 20 µM |
| C[C@H](N)C(=O)c1ccccc1 [(-)- (S)-Cathinone hydrochloride] | > 50 µM |
| CCN(CC)c1ccc2c(C)cc(=O)oc2c1 [7-Diethylamino-4-methylcoumarin] | > 90 µM |
| O=S(=O)(O)c1cccc2c(S(=O)(=O)O)cccc12 [1,5-Naphthalenedisulfonic acid, disodium salt hydrate] | > 90 µM |

| SMILES | CC50 at 24 h |
| --- | --- |
| CCCCC(CC)COC(=O)COc1cc(Cl)c(Cl)cc1Cl (stereo not shown) [2,4,5-T 2-Ethylhexyl] | > 90 µM |
| C[Si](Cn1cncn1)(c1ccc(F)cc1)c1ccc(F)cc1 [Flusilazole] | > 90 µM |
| OCC1(O)OC[C@@H](O)[C@@H](O)[C@@H]1O (stereo partly drawn) [D-Fructose] | > 50 µM |
| C=CCOC(=O)CCCCCC [Prop-2-en-1-yl heptanoate] | > 90 µM |
| O=C1c2ccccc2CCc2ccccc21 [Dibenzosuberone] | > 90 µM |
| COc1ccc(Cl)cc1C(=O)NCCc1ccc(S(=O)(=O)NC(=O)NC2CCCCC2)cc1 [Glybenclamide] | > 90 µM |
| O=[N+]([O-])c1ccc(O)cc1C(F)(F)F [3-Trifluoromethyl-4-nitrophenol] | 41.4 µM |
| NCCN1CCNC1=O [1-(2-Aminoethyl)imidazolidin-2-one] | > 90 µM |
| CC(C)(C)c1cc(CCC(=O)NN)cc(C(C)(C)C)c1O [3-[3,5-DI(tert-butyl)-4-hydroxyphenyl]propanohydrazide] | > 90 µM |
| C=C(C)c1cccc(C(=C)C)c1 [1,3-Diisopropenylbenzene] | > 90 µM |
| O=C(O)c1cc(O)c(O)c(O)c1 [Gallic acid] | 90.1 µM |
| NC(=O)c1ccc([N+](=O)[O-])cc1 [4-Nitrobenzamide] | > 90 µM |
| COC(=O)CCc1ccc(OCC(O)CNC(C)C)cc1 (stereo not shown) [Esmolol hydrochloride] | > 50 µM |
| CN(C)[C@@H]1C(O)=C(C(N)=O)C(=O)[C@@]2(O)C(O)=C3C(=O)c4c(O)ccc(Cl)c4[C@@H](O)[C@H]3C[C@@H]12 [Demeclocycline hydrochloride] | > 50 µM |
| Nc1cc(O)nc(N)n1 [2,4-Diamino-6-hydroxypyrimidine] | > 50 µM |
| O=C(/C=C/c1ccc([N+](=O)[O-])cc1)c1ccccc1 [4-Nitrochalcone] | > 90 µM |
| Cc1cccc(Nc2ccccc2)c1 [3-Methyl-N-phenylaniline] | > 90 µM |
| O=C(O)c1ccccc1Nc1cc(Cl)ccc1C(=O)O [Lobenzarit sodium] | > 50 µM |
| CCCCCCCCCCCCOCCO [2-(Dodecyloxy)ethanol] | > 90 µM |
| CCCCCCCCCCCC(C)=O [2-Tridecanone] | > 90 µM |
| CC(C)(C)C(=O)C(Oc1ccc(Cl)cc1)n1ccnc1 (stereo not shown) [Climbazole] | > 50 µM |
| COC(=O)C(CN)c1c[nH]c2ccc(OC)cc12 (stereo not shown) [Indorenate hydrochloride] | > 50 µM |
| Cc1cc(C)c(C)cc1C [1,2,4,5-Tetramethylbenzene] | > 90 µM |
| C[C@]12C=CC(=O)C=C1CC[C@@H]1[C@@H]2C(=O)C[C@@]2(C)[C@H]1CC[C@]2(O)C(=O)CO [Prednisone] | > 90 µM |
| CCC(C(=O)NC(N)=O)c1ccccc1 (stereo not shown) [Ethylphenylacetylurea] | > 90 µM |
| NC[C@H]1O[C@H](O[C@H]2[C@H](O[C@@H]3O[C@H](CO)[C@@H](O)[C@H]3O)[C@@H](O)[C@H](N)C[C@@H]2N)[C@H](N)[C@@H](O)[C@@H]1O [Ribostamycin sulfate] | > 20 µM |

Same assay, conditions: rat, gh3-tre-luc cells, AC50 (uM) modified / 1000, Tox21_110001=Tox21_112826; viability, 1 nM T3 present, 24 h

| SMILES | CC50 at 24 h |
| --- | --- |
| C[C@H]1[C@@H]2Cc3ccc(O)cc3[C@@]1(C)CCN2C [(+)-Metazocine fumarate (2:1)] | > 200 µM |

Same assay, conditions: rat, gh3-tre-luc cells, AC50 (uM) modified / 1000, Tox21_110001=Tox21_200356; viability, 1 nM T3 present, 24 h

| SMILES | CC50 at 24 h |
| --- | --- |
| CC(C)Br [2-Bromopropane] | > 90 µM |

Same assay, conditions: rat, gh3-tre-luc cells, AC50 (uM) modified / 1000, Tox21_110001=Tox21_201057; viability, 1 nM T3 present, 24 h

| SMILES | CC50 at 24 h |
| --- | --- |
| c1cc2c3c(c1)ccc1cccc(c13)C2 [4H-Cyclopenta(def)phenanthrene] | > 90 µM |

Same assay, conditions: rat, gh3-tre-luc cells, AC50 (uM) modified / 1000, Tox21_110001=Tox21_302025; viability, 1 nM T3 present, 24 h

| SMILES | CC50 at 24 h |
| --- | --- |
| CCC(=O)c1ccccc1 [1-Phenylpropan-1-one] | > 90 µM |
